Laboratory results: patent publication US10183021B2, “sGC stimulators” (Ironwood Pharmaceuticals, Inc., priority 2013, dated 2019)

Assays:
[1] = molecular target: T1, soluble guanylate cyclase (sGC) (Homo sapiens (Human), UniProt Q02108+Q02153); experiment: sGC-HEK-cGMP assay, new protocol with DETA-NONOate, LC/MS detection (Example 2C); type: cell-based; details: read-out: Absolute EC50 (uM) - binned
Method: Human embryonic kidney cells (HEK293), endogenously expressing soluble guanylate cyclase (sGC), were used to evaluate the activity of test compounds. Compounds stimulating the sGC enzyme should cause an increase in the intracellular concentration of cGMP. HEK 293 cells were seeded in Dulbecco's Modification of Eagle's Medium supplemented with fetal bovine serum (10% final) and penicillin (100 U/mL)/streptomycin (100 μg/mL) in a 50 μL volume at a density of 1.5×10^4 cells/well in a poly-D-lysine coated 384 well flat bottom plate. Cells were incubated overnight at 37° C. in a humidified chamber with 5% CO2. Medium was aspirated and cells were washed with 1× Hank's Buffered Saline Salt Solution (50 μL). Cells were then incubated for 15 minutes at 37° C. with 50 μL of a 0.5 mM 3-isobutyl-1-methylxanthine (IBMX) solution. Test article and Diethylenetriamine NONOate (DETA-NONOate) solutions (x μM concentration for test article solution and 10 μM concentration for DETA-NONOate solution; wherein x is one of the following concentrations);
were then added to the assay mixture and the resulting mixture incubated at 37° C. for 20 minutes. After the 20 minute incubation, the assay mixture was aspirated and 10% acetic acid containing 150 ng/mL+3-cGMP (internal standard for LCMS) (50 μL) was added to the cells. The plate was incubated at 4° C. for 30 minutes in the acetic acid solution to stop the reaction and lyse the cells. The plates were then centrifuged at 1,000 g for 3 minutes at 4° C. and the supernatant transferred to a clean reaction plate for LCMS analysis.
cGMP concentrations were determined from each sample using the LCMS conditions below (Table 5) and calculated standard curve.
Data were normalized to a high control using the following equation: 100*(Sample−Low Control)/(High Control−Low Control), where the low control is the average of 16 samples treated with 1% DMSO, and the high control is the average of 16 samples treated with 30 μM of 1-329 Data were fit using a 4-parameter fit (log(agonist) vs. response—variable slope) using GraphPad Prism Software v.5. n=2 for all compounds. […] Compounds failing to elicit a minimum response of 50% are reported as >30 μM.

[2] = molecular target: T1, soluble guanylate cyclase (sGC); experiment: sGC-HEK-cGMP assay with SNP incubation, LC/MS detection (Example 2A); type: cell-based; details: HEK293 cells, 10 μM SNP, LC/MS detection; for Emax: 100% = BAY 41-2272 at 10 μM, read-out: HEK assay Emax - unconstrained (%); for EC50: top of curve not fitted to 100%, read-out: HEK assay EC50 - unconstrained
Outline: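 HEK293 cells with endogenous sGC were pretreated 15 min at 37 °C with 0.5 mM IBMX, then exposed 10 min at 37 °C to compound (added from 0.0001–30 μM solutions) plus SNP (from 10 μM solution). After 0.1 M HCl lysis, cGMP was quantified by LC/MS against a standard curve.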

T1 sequence (Q02153 whole entry): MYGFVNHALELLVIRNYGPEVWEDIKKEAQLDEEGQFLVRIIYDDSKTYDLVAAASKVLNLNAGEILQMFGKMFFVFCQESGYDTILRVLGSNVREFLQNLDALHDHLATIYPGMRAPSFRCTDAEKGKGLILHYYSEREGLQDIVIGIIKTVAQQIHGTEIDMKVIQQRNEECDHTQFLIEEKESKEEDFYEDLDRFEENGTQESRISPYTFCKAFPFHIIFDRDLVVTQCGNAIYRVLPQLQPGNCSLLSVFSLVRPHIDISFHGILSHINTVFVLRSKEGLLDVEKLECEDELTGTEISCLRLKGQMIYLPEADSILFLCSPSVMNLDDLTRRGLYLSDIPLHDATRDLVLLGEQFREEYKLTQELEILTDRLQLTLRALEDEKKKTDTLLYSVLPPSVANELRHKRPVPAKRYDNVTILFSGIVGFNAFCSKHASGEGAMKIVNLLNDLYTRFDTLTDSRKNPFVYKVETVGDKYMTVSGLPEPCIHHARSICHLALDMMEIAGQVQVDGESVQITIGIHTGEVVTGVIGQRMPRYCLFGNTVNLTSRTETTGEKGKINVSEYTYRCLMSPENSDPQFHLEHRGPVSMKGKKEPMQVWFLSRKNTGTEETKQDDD
T1 sequence (Q02108 whole entry): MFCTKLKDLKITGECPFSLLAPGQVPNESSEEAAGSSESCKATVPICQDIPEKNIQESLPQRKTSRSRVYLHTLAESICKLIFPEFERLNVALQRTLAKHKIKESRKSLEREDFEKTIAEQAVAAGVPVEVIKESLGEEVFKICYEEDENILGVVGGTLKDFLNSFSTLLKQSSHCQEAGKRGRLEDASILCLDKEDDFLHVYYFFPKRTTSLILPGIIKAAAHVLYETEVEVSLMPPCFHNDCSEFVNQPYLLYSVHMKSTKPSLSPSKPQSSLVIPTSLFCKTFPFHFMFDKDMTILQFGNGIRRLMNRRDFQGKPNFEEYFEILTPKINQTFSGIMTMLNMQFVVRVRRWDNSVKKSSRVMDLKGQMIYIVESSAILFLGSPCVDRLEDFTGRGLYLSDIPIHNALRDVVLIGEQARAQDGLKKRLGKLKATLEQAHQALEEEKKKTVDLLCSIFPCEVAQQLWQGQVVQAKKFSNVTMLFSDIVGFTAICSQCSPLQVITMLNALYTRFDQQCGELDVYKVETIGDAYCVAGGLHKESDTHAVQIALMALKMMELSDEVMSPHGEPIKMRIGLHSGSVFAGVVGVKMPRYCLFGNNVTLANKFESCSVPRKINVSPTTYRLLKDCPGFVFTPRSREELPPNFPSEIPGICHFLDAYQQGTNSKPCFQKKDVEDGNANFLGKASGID

Structure (SMILES) | Emax [2] [%] | EC50 [2] [nM] | EC50 [1] [µM]
O=C(O)C12CC(Nc3nc(-c4cc(-c5ccon5)n(Cc5ccccc5F)n4)ncc3F)(C1)C2 [Compound I-269] | – | – | > 1
CC(C)[C@@H](C(=O)O)N(C)c1ccnc(-c2cc(-c3ccon3)n(Cc3ccccc3F)n2)n1 [Compound I-272] | 60 to 80 | 100 to 500 | –
Fc1ccccc1Cn1nc(-c2ncc(F)c(Nc3nnn[nH]3)n2)cc1-c1ccon1 [Compound I-276] | 40 to 60 | 100 to 500 | –
O=C(NS(=O)(=O)N1CCN(c2nc(-c3cc(-c4ccon4)n(Cc4ccccc4F)n3)ncc2F)CC1)C1CC1 [Compound I-285] | 100 to 120 | 1 to 100 | –
CC1(CC(=O)O)CCN(c2nc(-c3cc(-c4ccon4)n(Cc4ccccc4F)n3)ncc2F)CC1 [Compound I-289] | 60 to 80 | 100 to 500 | –
O=C(O)C1(C2CCCCC2)CCN(c2nc(-c3cc(-c4ccon4)n(Cc4ccccc4F)n3)ncc2F)CC1 [Compound I-290] | 60 to 80 | 100 to 500 | –
COC(=O)C1(N)CCN(c2nc(-c3cc(-c4ccon4)n(Cc4ccccc4F)n3)ncc2F)CC1 [Compound I-298] | 60 to 80 | 100 to 500 | –
O=C(O)[C@@H]1CC(F)(F)CN1c1nc(-c2cc(-c3ccon3)n(Cc3ccccc3F)n2)ncc1F [Compound I-301] | 60 to 80 | 1000 to 5000 | –
O=C(O)C12CC1CCCN2c1nc(-c2cc(-c3ccon3)n(Cc3ccccc3F)n2)ncc1F (centres unmarked) [Compound I-308] | – | – | 0.101 to 1
CN(c1nc(-c2cc(-c3ccon3)n(Cc3ccccc3F)n2)ncc1F)[C@@H]1CC[C@H](C(=O)O)C1 [Compound I-309] | – | – | < 0.1
C[C@@H]1[C@H](C(=O)O)CCCN1c1nc(-c2cc(-c3ccon3)n(Cc3ccccc3F)n2)ncc1F [Compound I-310] | – | – | < 0.1
C[C@H]1[C@@H](C(=O)O)CCCN1c1nc(-c2cc(-c3ccon3)n(Cc3ccccc3F)n2)ncc1F [Compound I-311] | – | – | 0.101 to 1
O=C(O)C12CC1CN(c1nc(-c3cc(-c4ccon4)n(Cc4ccccc4F)n3)ncc1F)C2 (centres unmarked) [Compound I-312] | – | – | 0.101 to 1

More lines, main results first:

Emax [2] [%] | EC50 [2] [nM] | Structure (SMILES) | EC50 [1] [µM]
60 to 80 | 500 to 1000 | O=C(O)CN(CC(F)(F)F)c1nc(-c2cc(-c3ccon3)n(Cc3ccccc3F)n2)ncc1F [Compound I-273] | –
100 to 120 | 1 to 100 | CN(Cc1cccc(C(=O)O)c1)c1nc(-c2cc(-c3ccon3)n(Cc3ccccc3F)n2)ncc1F [Compound I-274] | –
80 to 100 | 1 to 100 | CN(Cc1ccc(C(=O)O)cc1)c1nc(-c2cc(-c3ccon3)n(Cc3ccccc3F)n2)ncc1F [Compound I-275] | –
60 to 80 | 100 to 500 | CC(C)(CC(=O)O)Nc1nc(-c2cc(-c3ccon3)n(Cc3ccccc3F)n2)ncc1F [Compound I-277] | –
80 to 100 | 100 to 500 | O=c1ccc(CNc2nc(-c3cc(-c4ccon4)n(Cc4ccccc4F)n3)ncc2F)c[nH]1 [Compound I-278] | –
80 to 100 | 100 to 500 | CN(Cc1ccccc1C(=O)O)c1nc(-c2cc(-c3ccon3)n(Cc3ccccc3F)n2)ncc1F [Compound I-279] | –
100 to 120 | 100 to 500 | O=C(O)c1ccc(CNc2nc(-c3cc(-c4ccon4)n(Cc4ccccc4F)n3)ncc2F)cc1 [Compound I-280] | –
80 to 100 | 1 to 100 | Oc1ccc(CNc2nc(-c3cc(-c4ccon4)n(Cc4ccccc4F)n3)ncc2F)cc1 [Compound I-286] | –
80 to 100 | 100 to 500 | CS(=O)(=O)c1ccc(CNc2nc(-c3cc(-c4ccon4)n(Cc4ccccc4F)n3)ncc2F)cc1 [Compound I-287] | –
80 to 100 | 100 to 500 | Oc1ccccc1CNc1nc(-c2cc(-c3ccon3)n(Cc3ccccc3F)n2)ncc1F [Compound I-288] | –
80 to 100 | 1 to 100 | O=C(O)C(CCNc1nc(-c2cc(-c3ccon3)n(Cc3ccccc3F)n2)ncc1F)c1ccccc1 (centres unmarked) [Compound I-292] | –
40 to 60 | 1000 to 5000 | NC1(C(=O)O)CCN(c2nc(-c3cc(-c4ccon4)n(Cc4ccccc4F)n3)ncc2F)CC1 [Compound I-299] | –
